Assay [1] can be described thus: Rat obesity induced by cafeteria diet, preventative pre-treatment (Table 3). In kind it is in vivo, Wistar Kyoto rats. The settings on record: 300 mg/kg oral, after two weeks on cafeteria diet; obese control 308 ± 17, lean control 280 ± 16; * lower than obese controls, ‡ indistinguishable. The method in brief:
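Groups of 6 female Wistar Kyoto rats (250-300 g) received oral pre-treatment with 300 mg/kg fatty acid or vehicle during 2 weeks on standard diet. Dosing continued for two further weeks on cafeteria diet, with lean and obese vehicle controls. Body-weight gain was the read-out.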

For assay [2], the target named is T1, cyclooxygenases-1 (COX-1) (Homo sapiens, UniProt P23219).
T1 construct: endogenous in cells; host or cells: U937 differentiated monocytes
Description: COX-1 activity in U937 differentiated monocytes (Cayman COX-1 inhibitor screening system). In kind it is cell-based. The note with it: 250 μM, 6 hours; compared with fatty acids not of Formula I, p<0.05. As to the method:
FIG. 19A. Effect of various fatty acids in the inhibition of the activity of cyclooxygenases-1 (COX-1) (Cayman COX-1 inhibitor screening system). […] Cell cultures (U937 differentiated monocytes) were treated with the fatty acids of the invention (250 μM, 6 hours).
(§1) In an additional study on the release of various proinflammatory cytokines (IL-1b, IL-6, IL-8, IL-10) and TNF-α in U937 monocytes stimulated with bacterial lipopolysaccharide (LPS), a marked reduction in the levels of these molecules was observed after treatments with OHHD at a concentration of 250 μM and 72 h incubation (Table 4). The effect of the α-derivatives of cis-monounsaturated fatty acids (250 μM, 6 h) on the activity and expression of the COX-1 and COX-2 cyclooxygenases was investigated in the same system.

For assay [3], the system named is cyclooxygenase-2 (COX-2). Kind of assay: Cellular concentration of COX-2 in U937 differentiated monocytes (immunoblot). The format is cell-based, human. The settings on record: 250 μM, 6 hours; compared with fatty acids not of Formula I, p<0.05. As to the method:
FIG. 19B. Effect of various fatty acids in the inhibition (concentration of protein) of cyclooxygenase-2 (immunoblot of COX-2). […] Cell cultures (U937 differentiated monocytes) were treated with the fatty acids of the invention (250 μM, 6 hours).
as §1

Assay [4] concerns A549 cells of human lung adenocarcinoma. Kind of assay: Prevention of tumour development in nude mice injected with A549 cells. The note with it: 400 mg/kg per day oral, 2 weeks before and one month after A549 injection, compared with fatty acids not of Formula I, p<0.05. The format is in vivo. The source says: FIG. 2. Preventative effect of various fatty acids against tumour development. […] Animals received treatment before injection of tumour cells and the treatment was subsequently maintained. Animals of the control group were not treated and the volume of their tumours was taken as the reference value (100%).
To determine whether the fatty acids of the invention have applications in the prevention of the development of tumour processes, an animal cancer model was used. This model consisted of immune-deprived animals ([Crl:Nu(Ico)-Fox 1] nude mice in which non-microcytic human lung cancer cells were injected (5×10^6 A549 cells per animal). The control group (infected with cancer cells but untreated) started to develop tumours that were visible after a few days. The sizes of the tumours were measured for the first time at 10 days after implanting the tumour and measurements continued for up to 31 days after the implantation with a digital calliper. The volume of the tumours was calculated with the following equation: v=w^2×l/2 where v is the volume of the tumour, w is its width and l is the length. Preventative treatments against development of the cancer were applied. To carry out these treatments, 400 mg/kg were administered per day for 2 weeks before the injection of tumour cells. This treatment was continued for one month after the implantation of the tumour cells and the volume of the tumours in the animals was measured. Each experimental group was composed of 8 animals. Oral administration of α-derivatives of cis-monounsaturated fatty acids prevented cancer development (A549 cells of human lung adenocarcinoma) (FIG. 2). […] Therefore it was concluded that the introduction of a double bond in the cis configuration in the structure of the fatty acid is a critical factor in the prevention and treatment by fatty acids of cancer development.

For assay [5], the system named is SF767 human brain cancer cells. Kind of assay: Tumour volume in nude mice infected with SF767 human brain cancer cells. The format is in vivo. The settings on record: 600 mg/kg daily for 50 days; for volume of tumours (percent compared to control): p<0.001 vs control. As to the method: FIG. 6A. Effect of different salts of OHOD on human lung cancer in an animal cancer model. The volume of tumours in nude mice infected with SF767 human brain cancer cells (expressed as a percent compared to control) receiving various treatments. The animals received a vehicle (water: Control), 600 mg/kg of OHOD in the form of free fatty acid (OHOD), 600 mg/kg of sodium salt of OHOD (Na-OHOD) or 600 mg/kg of ammonium salt of OHOD (NH3OHOD) daily for 50 days.
FIG. 6B. Effect of different salts of OHOD on human lung cancer in an animal cancer model. The effect of different doses of sodium salt of OHOD (Na-OHOD) are shown on tumour volumes in mice infected with SF767 cells and treated with vehicle (control, 0 mg/kg), 100 mg/kg (100), 200 mg/kg (200), 400 mg/kg (400) and 600 mg/kg (600) for 50 days. * p<0.05; ***p<0.001.
One important characteristic of the molecules covered in the present invention is that they can form various types of salts. FIG. 6A and Table 5 show the therapeutic effects of various α-derivatives of cis-monounsaturated fatty acids and their salts. […] The specificity of this effect is determined by the relation between the dose and the effect these molecules have on the volume of human tumours implanted in animals (FIG. 6B).

From patent US9730906B2, “α-derivatives of cis-monounsaturated fatty acids for use as medicines” (UNIVERSITAT DE LES ILLES BALEARS, priority 2008, dated 2017) come the findings set out here.

T1 sequence (P23219 24-599): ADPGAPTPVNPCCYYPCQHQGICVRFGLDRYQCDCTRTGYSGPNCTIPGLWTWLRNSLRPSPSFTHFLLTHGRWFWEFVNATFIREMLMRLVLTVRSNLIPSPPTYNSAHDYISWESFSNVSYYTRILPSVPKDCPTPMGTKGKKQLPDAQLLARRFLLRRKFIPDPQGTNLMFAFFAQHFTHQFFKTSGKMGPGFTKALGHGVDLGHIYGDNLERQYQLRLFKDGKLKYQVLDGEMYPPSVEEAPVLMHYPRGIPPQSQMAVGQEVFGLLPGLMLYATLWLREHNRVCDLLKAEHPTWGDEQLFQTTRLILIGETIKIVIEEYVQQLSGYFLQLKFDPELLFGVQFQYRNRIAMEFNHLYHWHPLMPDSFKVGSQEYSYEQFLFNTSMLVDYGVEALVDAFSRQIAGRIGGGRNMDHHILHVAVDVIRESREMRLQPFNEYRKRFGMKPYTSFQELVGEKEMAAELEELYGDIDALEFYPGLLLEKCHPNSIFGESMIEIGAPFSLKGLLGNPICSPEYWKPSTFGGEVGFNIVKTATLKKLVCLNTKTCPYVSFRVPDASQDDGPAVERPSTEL

As to `CCCCCCCC/C=C\CCCCCCC(OC)C(=O)O` (stereo not drawn) [MOOD, α-Methoxy-cis-Δ9-octadecenoic], the Final weight in assay [1] is given as 263 ± 22* g. In addition, the “inhibition of COX-1 activity (% of control)” value in assay [2] is recorded as “more significant effect”. Also, the “cellular concentration of COX-2 (% of control)” value in assay [3] was “more significant effect”. In addition, the “tumour volume (prevention of tumour development)” value in assay [4] is reported as “more significant effect”.

Turning to `CCCCCCCC/C=C\CCCCCCC(O)C(=O)[O-].[Na+]` (centres unmarked) [Na-OHOD], in assay [5], the “volume of tumours (percent compared to control)” value was “significant reductions in the size of tumours”. In assay [5] (p<0.05), the “potency on tumour volume compared with the free fatty acid OHOD” value was “significantly more potent”.

For `CCCCCCCC/C=C\CCCCCCC(O)C(=O)O` (stereo not drawn) [OHOD, α-Hydroxy-cis-Δ9-octadecenoic], the Final weight in assay [1] is on record as 284 ± 13* g. Besides, in assay [2], the “inhibition of COX-1 activity (% of control)” value was “more significant effect”. In assay [3], the “cellular concentration of COX-2 (% of control)” value was “more significant effect”. For the same compound, the “tumour volume (prevention of tumour development)” value in assay [4] was “more significant effect”. In addition, the “volume of tumours (percent compared to control)” value in assay [5] is listed as “significant reductions in the size of tumours”.
